Read-outs that look alike come from different tables or passages of the source.
Columns and labels:
Avi-HsRNMT-RAM = molecular target: T1, Avi-HsRNMT-RAM (Homo sapiens, UniProt O43148); experiment: SPR binding to immobilised Avi-HsRNMT-RAM; details: for kon: read-out: ka
T1 construct: Both HsRNMT full-length proteins (1-476) in complex with HsRAM (1-90) (HsRNMT-RAM and Avi-HsRNMT-RAM); hexa-His tag (TEV-cleavable) (N, cleaved yes); made in house; host or cells: Escherichia coli BL21 (DE3), co-transformed with pCDFduet-BirA
T1 sequence (O43148 whole entry): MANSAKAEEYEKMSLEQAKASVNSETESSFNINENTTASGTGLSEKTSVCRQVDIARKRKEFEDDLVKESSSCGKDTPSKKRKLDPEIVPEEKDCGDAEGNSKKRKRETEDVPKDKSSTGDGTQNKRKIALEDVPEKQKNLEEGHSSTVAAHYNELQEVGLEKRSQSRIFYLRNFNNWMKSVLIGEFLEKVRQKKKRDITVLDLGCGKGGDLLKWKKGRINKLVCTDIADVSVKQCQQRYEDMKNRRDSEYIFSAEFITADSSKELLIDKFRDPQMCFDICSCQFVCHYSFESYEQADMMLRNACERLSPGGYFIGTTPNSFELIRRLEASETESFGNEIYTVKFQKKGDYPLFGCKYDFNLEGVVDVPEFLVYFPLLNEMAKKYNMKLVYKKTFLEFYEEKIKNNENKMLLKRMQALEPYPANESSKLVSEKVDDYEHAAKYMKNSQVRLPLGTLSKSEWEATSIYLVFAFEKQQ
T1 sequence (Q9BTL3 1-90 partner limits assumed): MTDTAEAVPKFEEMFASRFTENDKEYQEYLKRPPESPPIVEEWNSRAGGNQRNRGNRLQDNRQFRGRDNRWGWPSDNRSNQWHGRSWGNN
From the text: To elucidate the cap-binding mode, full-length HsRNMT in complex with activating subunit RAM (Avi-HsRNMT-RAM) was investigated by surface plasmon resonance (SPR). We first measured the kinetic and equilibrium binding constants (KD) for SAM (Figure 3A), SAH (Figure 3B), and Sinefungin (Figure 3C). The kinetics of binding for these compounds appear very similar with a rapid onset of binding reaching a steady state within a few seconds. The loss of binding on washing with buffer was very similar.
Studies of binding kinetics were performed on a Biacore™ 8K + instrument (GE Healthcare). […] Compounds were tested in duplicate in a three-fold, eight-point serial dilution series in immobilisation buffer supplemented with 1% DMSO, with a flow rate of 30 μL min^-1, a contact time of 60 s and a dissociation time of 120 s at 25°C.
All monitored binding resonance signals were referenced with responses from unmodified reference surfaces, corrected for bulk shifts arising from differences in DMSO concentrations between samples and running buffer (solvent correction) and blank-referenced. Analysis was performed using the Biacore™ Insight Evaluation Software 2.0 with data fitted using the Langmuir 1:1 model.
The full-length HsRNMT complexed with HsRAM 1–90 (Avi-HsRNMT-RAM) was immobilised onto a Series S high-affinity SA sensor chip via C-terminal Avi-tag capture in HBS-P + buffer (10 mM HEPES, 150 mM NaCl, 0.5 mM TCEP) to an immobilisation level of 2200 RU, and the titration was performed at 15°C.

HsRNMT-RAM [1] = molecular target: T2, HsRNMT-RAM (Homo sapiens, UniProt O43148); experiment: Isothermal titration calorimetry (ITC); format: binding; design: For biochemical assays, full-length HsRNMT (1-476) was cloned in the pOPC bi-cistronic plasmid; His-MBP (TEV-cleavable) (cleaved yes); made in house; host or cells: Escherichia coli BL21 (DE3); details: for ΔG / ΔH / −TΔS: 25 mM HEPES pH7.5, 150 mM NaCl, 1 mM TCEP with 10 mM Sinefungin or SAH at 298°K; for Kd: protein pretreated with Sinefungin or SAH
T2 sequence (O43148 whole entry): as the sequence (O43148 whole entry) above
T2 sequence (Q9BTL3 1-90 partner limits assumed): as the sequence (Q9BTL3 1-90 partner limits assumed) above
Experimental: For both DDD1060606 and DDD1870799, we determined the enthalpic and entropic components of the free energy of binding to HsRNMT-RAM to guide both compound selection and the optimisation process. Note that all of the isothermal titration calorimetry (ITC) experiments were performed with protein pretreated with SAH or Sinefungin. We used cap as the reference ligand as it is widely accepted that ligands with more negative enthalpies of binding provide better starting points for lead optimisation. The interaction of cap with HsRNMT-RAM is enthalpically driven with an ΔH of −33.5 kcal/mol (Figure 9A) and net free energy change, ΔG of −8.4 kcal/mol (Figure 9B). Furthermore, we determined the binding affinities for DDD1060606 and DDD1870799 to HsRNMT-RAM.
[…] Working stock for ligands and protein complex was prepared at the required concentration by diluting the stocks with the dialysis buffer. The DMSO concentrations in the cell and syringe solutions were matched to 2.5% for the compound (DDD1060606 or DDD1870799) titrations. Experiments were performed using 13 injections of 3 μL of ligand using Malvern PEAQ-ITC system at 25°C, at 750 rpm with reference power set to 7 μcal/s. The thermograms were analysed using MicroCal PEAQ-ITC Analysis Software, blanked to ligand control and fit to One Set of Sites Model.

HsRNMT-RAM [2] = molecular target: T2, HsRNMT-RAM; experiment: Mode of inhibition experiments (RapidFire assay); details: for Ki: Ki (95% CI)
Experimental: An endpoint 384-well plate assay for HsRMNT-RAM activity was developed using the Agilent RapidFire 365 high-throughput system with integrated SPE interfaced with the Agilent 6740 triple quadrupole mass spectrometer. The assay was performed by mixing 5 nM HsRNMT-RAM in buffer (20 mM Tris, pH 8.0, 50 mM NaCl) supplemented with 1 mM EDTA, 1 mM DTT, 0.1 mg/mL BSA, 0.005% Nonidet P40 (Roche) and 3 mM MgCl2 with 2 µM of substrates (G(5′)ppp(5′)G Sodium Salt (cap) [New England Biolabs, Ipswich, MA]) and S-(5′-Adenosyl)-L-methionine chloride dihydrochloride (SAM [Cayman Chemical, Ann Arbor, MI]). The enzymatic reaction incubated for 60 minutes at room temperature followed by quenching with 80 μL 1% formic acid (VWR, Radnor, PA) containing 0.03 µg/µL S-adenosylhomocysteine-d4 (d4SAH [Cambridge Bioscience, Cambridge, U.K]). Plates were centrifuged at 500×g for 1 minute after every addition and sealed using the PlateLoc thermal microplate sealer before analysis on the RapidFire. Samples were loaded onto the RapidFire system, and analysis was performed as described for the identification of inhibitors of the SARS-CoV-2 guanine-N7-methyltransferase [32].
Mode of inhibition experiments were carried out by testing enzymatic activity at a range of compound and substrate concentrations. Compounds were tested at five different concentrations selected around the pIC50 against five substrate concentrations (between 2.2 and 20 µM). The data were fitted globally to equations describing inhibition [47] to determine the respective kinetic constants. All analyses were performed in Sigmaplot Version 14.0.3.192.
Where relevant, data are presented as the mean of three independent experiments with 95% CI.

HsRNMT-RAM [3] = molecular target: T2, HsRNMT-RAM; experiment: RapidFire mass spectrometry assay, inhibition dose response; format: biochemical; design: For biochemical assays, full-length HsRNMT (1-476) was cloned in the pOPC bi-cistronic plasmid; His-MBP (TEV-cleavable) (cleaved yes); made in house; host or cells: Escherichia coli BL21 (DE3); details: for IC50: 5 nM HsRNMT-RAM, 2 µM SAM, 2 µM cap, 60 minutes, 10 point 1:3 dilutions from 100 μM, read-out: pIC50 (negative logarithm of half-maximal inhibitory concentration [molar]) (converted)
HsRNMT-RAM [4] = molecular target: T2, HsRNMT-RAM; experiment: Km determinations (RapidFire Mass Spec assay); format: biochemical; design: For biochemical assays, full-length HsRNMT (1-476) was cloned in the pOPC bi-cistronic plasmid; His-MBP (TEV-cleavable) (cleaved yes); made in house; host or cells: Escherichia coli BL21 (DE3); details: SAM 40 to 0.08 µM, saturating cap (40 µM), 5 nM enzyme; mean of three experiments [95% CI]
Experimental: Experiments to determine the Km^app values were carried out using a two-fold dilution of cap or SAM from 40 to 0.08 µM and a saturating concentration (40 µM) of SAM (Km^app cap) or cap (Km^app SAM). HsRNMT-RAM was used at 5 nM. Data were analysed to calculate the initial velocity (V0). Km^app and Vmax values were determined by nonlinear regression analysis fitted to the Michaelis–Menten equation [46] using Sigmaplot Version 14.0.3.192.

[5] = SPR, ligand titrated in presence of SAH
[6] = SPR, ligand titrated in presence of Sinefungin (saturating, 1 µM), 15°C
[7] = SPR, no co-ligand, Langmuir 1:1 model
[8] = SPR, inhibitor titrated in presence of SAH
[9] = SPR, inhibitor titrated in presence of SAH, read-out: KD (kinetic)
[10] = SPR, inhibitor titrated in presence of SAH, read-out: KD (steady state)
[11] = SPR, inhibitor titrated in presence of SAM
[12] = SPR, inhibitor titrated, no co-ligand
[13] = SPR, no co-ligand, read-out: KD (kinetic)
[14] = SPR, no co-ligand, read-out: KD (steady state)

SMILES: Nc1nc2c(ncn2[C@@H]2O[C@H](COP(=O)(O)OP(=O)(O)OP(=O)(O)OC[C@H]3O[C@@H](n4cnc5c(=O)[nH]c(N)nc54)[C@H](O)[C@@H]3O)[C@@H](O)[C@H]2O)c(=O)[nH]1 [Cap, G(5′)ppp(5′)G]
- KD (kinetic) (Avi-HsRNMT-RAM; [5]): No binding
- KD (steady state) (Avi-HsRNMT-RAM; [5]): No binding
- Rmax (Avi-HsRNMT-RAM; [5]): No binding
- ka (Avi-HsRNMT-RAM; [5]): No binding
- kd (Avi-HsRNMT-RAM; [5]): No binding
- KD (kinetic) (Avi-HsRNMT-RAM; SPR, ligand titrated in presence of SAH, listed as cap): No interaction
- Rmax (Avi-HsRNMT-RAM; [6]): 11.8 RU
- kd (Avi-HsRNMT-RAM; [6]): 0.025 s⁻¹
- Kd (Avi-HsRNMT-RAM; SPR, ligand titrated in presence of Sinefungin (saturating, 1 µM), 15°C, read-out: KD (kinetic)): 20 nM
- Kd (Avi-HsRNMT-RAM; SPR, ligand titrated in presence of Sinefungin (saturating, 1 µM), 15°C, read-out: KD (steady state)): 35 nM
- kon (Avi-HsRNMT-RAM; [6]): 1.2e+06 M⁻¹ s⁻¹
- KD (kinetic) (Avi-HsRNMT-RAM; SPR, no co-ligand): No binding
- KD (steady state) (Avi-HsRNMT-RAM; SPR, no co-ligand): No binding
- Rmax (Avi-HsRNMT-RAM; SPR, no co-ligand): No binding
- ka (Avi-HsRNMT-RAM; [7]): No binding
- kd (Avi-HsRNMT-RAM; [7]): No binding
- KD (kinetic) (Avi-HsRNMT-RAM; SPR, no co-ligand, listed as cap): No interaction
- ΔG (HsRNMT-RAM [1]): -8.4 kcal/mol
- ΔH (HsRNMT-RAM [1]): -33.5 kcal/mol
- −TΔS (HsRNMT-RAM [1]): 25.1 kcal/mol
- Kd (HsRNMT-RAM [1]): 700 nM

SMILES: O=C(Cc1ccsc1)N1CCCC(c2n[nH]c3ncccc23)C1 (stereo not drawn) [DDD1060606]
- Rmax (Avi-HsRNMT-RAM; [8]): 13.2 RU
- kd (Avi-HsRNMT-RAM; [8]): 0.27 s⁻¹
- Kd (Avi-HsRNMT-RAM; [9]): 1600 nM
- Kd (Avi-HsRNMT-RAM; [10]): 1400 nM
- KD (kinetic) (Avi-HsRNMT-RAM; [11]): No binding
- KD (steady state) (Avi-HsRNMT-RAM; [11]): No binding
- Rmax (Avi-HsRNMT-RAM; [11]): No binding
- ka (Avi-HsRNMT-RAM; [11]): No binding
- kd (Avi-HsRNMT-RAM; [11]): No binding
- KD (kinetic) (Avi-HsRNMT-RAM; [12]): No binding
- KD (steady state) (Avi-HsRNMT-RAM; [12]): No binding
- Rmax (Avi-HsRNMT-RAM; [12]): No binding
- ka (Avi-HsRNMT-RAM; [12]): No binding
- kd (Avi-HsRNMT-RAM; [12]): No binding
- Ki (HsRNMT-RAM [2]; Ki SAM, against SAM): 1600 nM
- Ki (HsRNMT-RAM [2]; Ki cap, against cap): 1600 nM
- mode of inhibition with SAM (HsRNMT-RAM [2]; against SAM): Uncompetitive
- mode of inhibition with cap (HsRNMT-RAM [2]; against cap): Uncompetitive
- inhibition of HsRNMT-RAM activity (HsRNMT-RAM [3]): > 80%
- IC50 (HsRNMT-RAM [3]): 3160 nM
- ΔG (HsRNMT-RAM [1]): -7.5 kcal/mol
- ΔH (HsRNMT-RAM [1]): -4.3 kcal/mol
- −TΔS (HsRNMT-RAM [1]): -3.1 kcal/mol
- entropic contribution Δ(TΔS) (HsRNMT-RAM [1]; DDD1060606 compared with DDD1870799): -1.8 kcal/mol
- Kd (HsRNMT-RAM [1]): 3200 nM

SMILES: O=C(Cc1ccc(F)cc1)N1CCCC(c2n[nH]c3nc(O)ccc23)C1 (stereo not drawn) [DDD1870799]
- Rmax (Avi-HsRNMT-RAM; [8]): 13.3 RU
- kd (Avi-HsRNMT-RAM; [8]): 0.45 s⁻¹
- Kd (Avi-HsRNMT-RAM; [9]): 2500 nM
- Kd (Avi-HsRNMT-RAM; [10]): 2300 nM
- KD (kinetic) (Avi-HsRNMT-RAM; [11]): No binding
- KD (steady state) (Avi-HsRNMT-RAM; [11]): No binding
- Rmax (Avi-HsRNMT-RAM; [11]): No binding
- ka (Avi-HsRNMT-RAM; [11]): No binding
- kd (Avi-HsRNMT-RAM; [11]): No binding
- KD (kinetic) (Avi-HsRNMT-RAM; [12]): No binding
- KD (steady state) (Avi-HsRNMT-RAM; [12]): No binding
- Rmax (Avi-HsRNMT-RAM; [12]): No binding
- ka (Avi-HsRNMT-RAM; [12]): No binding
- kd (Avi-HsRNMT-RAM; [12]): No binding
- Ki (HsRNMT-RAM [2]; Ki SAM, against SAM): 3400 nM
- Ki (HsRNMT-RAM [2]; Ki cap, against cap): 3300 nM
- mode of inhibition with SAM (HsRNMT-RAM [2]; against SAM): Uncompetitive
- mode of inhibition with cap (HsRNMT-RAM [2]; against cap): Uncompetitive
- inhibition of HsRNMT-RAM activity (HsRNMT-RAM [3]): > 80%
- IC50 (HsRNMT-RAM [3]): 10000 nM
- ΔG (HsRNMT-RAM [1]): -7.5 kcal/mol
- ΔH (HsRNMT-RAM [1]): -6.2 kcal/mol
- −TΔS (HsRNMT-RAM [1]): -1.3 kcal/mol
- net enthalpic change ΔΔH (HsRNMT-RAM [1]; DDD1870799 in comparison with DDD1060606): -1.9 kcal/mol
- Kd (HsRNMT-RAM [1]): 2900 nM

SMILES: Nc1nc(O)c2ncn([C@@H]3O[C@H](COP(=O)(O)OP(=O)(O)NP(=O)(O)O)[C@@H](O)[C@H]3O)c2n1 [GMP-PnP, guanosine 5′-[β,γ-imido]triphosphate, reference compound]
- Ki (HsRNMT-RAM [2]; Ki cap, against cap): 2300 nM
- mode of inhibition with cap (HsRNMT-RAM [2]; against cap): competitive

SMILES: Nc1ncnc2c1ncn2[C@@H]1O[C@H](CSCC[C@H](N)C(=O)O)[C@@H](O)[C@H]1O [SAH, S-adenosylhomocysteine]
- Rmax (Avi-HsRNMT-RAM; SPR, no co-ligand): 14.3 RU
- kd (Avi-HsRNMT-RAM; [7]): 0.072 s⁻¹
- Kd (Avi-HsRNMT-RAM; [13]): 19 nM
- Kd (Avi-HsRNMT-RAM; [14]): 18 nM
- kon (Avi-HsRNMT-RAM): 3.8e+06 M⁻¹ s⁻¹

SMILES: C[S+](CC[C@H](N)C(=O)[O-])C[C@H]1O[C@@H](n2cnc3c(N)ncnc32)[C@H](O)[C@@H]1O (stereo partly drawn) [SAM, S-adenosylmethionine]
- Rmax (Avi-HsRNMT-RAM; SPR, no co-ligand): 14.9 RU
- kd (Avi-HsRNMT-RAM; [7]): 0.1 s⁻¹
- Kd (Avi-HsRNMT-RAM; [13]): 79 nM
- Kd (Avi-HsRNMT-RAM; [14]): 89 nM
- kon (Avi-HsRNMT-RAM): 1.2e+06 M⁻¹ s⁻¹
- Km (HsRNMT-RAM [4]): 1.6 µM

SMILES: Nc1ncnc2c1ncn2[C@@H]1O[C@H](C[C@@H](N)CC[C@H](N)C(=O)O)[C@@H](O)[C@H]1O [Sinefungin, reference compound]
- Rmax (Avi-HsRNMT-RAM; SPR, no co-ligand): 14.2 RU
- kd (Avi-HsRNMT-RAM; [7]): 0.092 s⁻¹
- Kd (Avi-HsRNMT-RAM; [13]): 77 nM
- Kd (Avi-HsRNMT-RAM; [14]): 73 nM
- kon (Avi-HsRNMT-RAM): 1.2e+06 M⁻¹ s⁻¹
- Ki (HsRNMT-RAM [2]; Ki SAM, against SAM): 6.8 nM
- Ki (HsRNMT-RAM [2]; Ki cap, against cap): 104 nM
- mode of inhibition with SAM (HsRNMT-RAM [2]; against SAM): competitive inhibition
- mode of inhibition with cap (HsRNMT-RAM [2]; against cap): non-competitive inhibition

— PMC12133303, “Characterisation of RNA guanine-7 methyltransferase (RNMT) using a small molecule approach” (Biochemical Journal, 2025)
